Test results published in US20040014812A1, “Remedies for keratoconjunctival diseases containing farnesyl acetate as the active ingredient” (SANTEN PHARMACEUTICAL CO. LTD, priority 2000, published 2004).

Tested on: lacrimal gland-nictitating membrane-harderian gland-enucleated rabbit dry eye models
Experiment: Rose bengal intake of cornea in rabbit dry eye models after instillation of ophthalmic solutions
Format: in vivo
Conditions: rabbit dry eye model
Protocol: An effect of farnesylacetic acid on dry eye was studied by using lacrimal gland-nictitating membrane-harderian gland-enucleated rabbit dry eye models.
Lacrimal gland-nictitating membrane-harderian gland-enucleated rabbit dry eye models were prepared by reference to the method of Girbard et al. (Invest. Ophthalmol. Vis. Sci., 28: 225-228 (1987)). Namely, a 7:1 mixture of a 5% ketamine hydrochloride injection and a 2% xylazine hydrochloride injection was injected into rabbits in an amount of 1 ml/kg to anesthetize the rabbits systemically. A 0.4% oxybuprocaine hydrochloride ophthalmic solution was instilled into the rabbits, lower lid skin was dissected in length of about 5 mm along an orbital bone, and then a lacrimal gland was enucleated from the outside of a conjunctival sac. The skin at the dissected site was sutured with 4-0 sutures, and an ofloxacin eye ointment was applied to the sutured site. Next, a harderian gland was enucleated while drawing it out with a nictitating membrane. Finally, the ofloxacin eye ointment was applied to the enucleated site.
Farnesylacetic acid ophthalmic solutions were prepared by diluting farnesylacetic acid with the following vehicle so that its concentrations were 0.75, 7.5 and 75 μM. A gefarnate ophthalmic solution was prepared by diluting gefarnate with the same vehicle so that its concentration was 7.5 mM. All the obtained ophthalmic solutions had pH of 7.4 and osmotic pressure of 1.0.
Each farnesylacetic acid ophthalmic solution (50 μl) was instilled into the lacrimal gland-nictitating membrane-harderian gland-enucleated rabbits six times per day for two weeks (four rabbits and eight eyes per group. The vehicle and gefarnate were instilled similarly as a control group and a comparative group respectively.
Effects on dry eye were evaluated by measuring rose bengal intake. A 7:1 mixture of a 5% ketamine hydrochloride injection and a 2% xylazine hydrochloride injection was injected into the rabbits in an amount of 1 ml/kg to anesthetize the rabbits systemically, then eyelids were opened with an eye speculum, and the conjunctival sacs were filled with physiological saline containing 1% rose bengal. The eyes were maintained for 10 seconds and then washed with physiological saline. A 5% pentobarbital injection was injected into the rabbits to euthanatize them, and eyeballs were enucleated. Corneal pieces were prepared with a trephine having an inner diameter of 8 mm, put into 1 ml of 2 M sodium hydroxide and allowed to stand under light resistance for one day to dissolve corneal tissues completely. Absorbance at a wavelength of 560 nm of the obtained tissue-dissolved solutions was measured with a spectrophotometer.
Rose bengal stains a portion containing no mucin layer in keratoconjunctiva. […] Accordingly, when the mucin layer decreases because of dry eye, rose bengal intake of the corneal tissues increases, and the absorbance of the tissue-dissolved solution increases.

Compound	Absorbance (560 nm) of corneal tissue-dissolved solution (rose bengal intake) (ophthalmic solution 7.5 mM, instilled six times per day for two weeks)	Effect compared with gefarnate (7.5 mM administration group) (75 μM administration group, about 1/100 of the gefarnate concentration)	Rose bengal intake compared with vehicle administration group (0.75, 7.5 and 75 μM administration groups)	Absorbance (560 nm) of corneal tissue-dissolved solution (rose bengal intake) (ophthalmic solution 0.75 μM, 50 μl instilled six times per day for two weeks)	Absorbance (560 nm) of corneal tissue-dissolved solution (rose bengal intake) (ophthalmic solution 7.5 μM, 50 μl instilled six times per day for two weeks)	Absorbance (560 nm) of corneal tissue-dissolved solution (rose bengal intake) (ophthalmic solution 75 μM, 50 μl instilled six times per day for two weeks)
CC(C)=CCC/C(C)=C/CC/C(C)=C/CCC(=O)OC/C=C(\C)CCC=C(C)C [gefarnate, reference compound]	0.075	–	–	–	–	–
CC(C)=CCC/C(C)=C/CC/C(C)=C/CCC(=O)O [Farnesylacetic acid, farnesylacetic acid]	–	an effect equal to that of gefarnate	apparently less than that in the vehicle administration group	0.169	0.139	0.093
